Source: patent US6867214B1, “Quinazoline derivatives and pharmaceutical applications thereof” (Daiichi Suntory Pharma Co., Ltd., priority 1998, dated 2005)

Legend:
[1] = Test of stability in human plasma; conditions: pH 7.2
Procedure: (§1) Human plasma was diluted two-fold with 50 mM sodium phosphate buffer (pH=7.2) for use as the test plasma solution. The test sample was made a DMSO solution of 1 mM concentration.
(§2) 198 μl of the above two-fold diluted plasma solution warmed to 37° C. was added to 2 μl of the test sample DMSO solution and the resultant mixture was stirred and incubated at 37° C. After 0, 5, and 15 minutes, 800 μl of acetonitrile was mixed with the test sample-plasma mixture to remove the protein, then a centrifugation operation (12,000 rpm, 1 minute) was carried out and the supernatant obtained. This was diluted two-fold with distilled water and measured for of the test sample by HPLC analysis.
(§3) For the rate of recovery from the plasma, the rates of recovery at different times were calculated based on a calibration line of the test sample in a DMSO standard solution. The half-life (t1/2) in plasma was calculated by exponential recurrence analysis from the rates of recovery of these different times.

Human heart chymase = molecular target: T1, Human heart chymase (Homo sapiens, UniProt P23946); test: Measurement of chymase inhibitory activity; type: biochemical; conditions: purified human heart chymase, substrate Suc-Ala-Ala-Pro-Phe-MCA, pH 7.5, 30° C., 10 min preincubation
T1 construct: Human heart chymase was purified according to the method of Urata et al; from tissue; host or cells: human heart
T1 sequence (P23946 22-247): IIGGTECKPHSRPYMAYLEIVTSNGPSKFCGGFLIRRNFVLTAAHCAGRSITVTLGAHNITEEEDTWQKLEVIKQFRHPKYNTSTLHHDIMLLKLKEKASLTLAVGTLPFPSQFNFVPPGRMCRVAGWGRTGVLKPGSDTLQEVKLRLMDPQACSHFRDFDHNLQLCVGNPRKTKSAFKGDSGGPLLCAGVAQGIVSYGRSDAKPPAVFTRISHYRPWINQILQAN
Procedure: Human heart chymase was purified according to the method of Urata et al. (J. Biol. Chem., 1990, 265, 22348). The inhibitory activity of the quinazoline derivatives of the present invention with respect to chymase was measured in the following manner. That is, the purified enzyme solution was diluted to a suitable concentration with 0.1M tris-hydrochloride buffer (pH=7.5), 1M sodium chloride, and 0.01% TritonX-100 to In obtain an enzyme solution. A 10 mM dimethyl sulfoxide (hereinafter referred to as DMSO) solution of Suc-Ala-Ala-Pro-Phe-MCA (Peptide Institute) was diluted 20-fold at the time of use by 0.1M tris-hydrochlorate, 1M sodium chloride, and 0.01% TritonX-100 to obtain the substrate solution.
75 μl of the enzyme solution warmed to 30° C. was mixed with 5 μl of DMSO solution of the test sample. The mixture was preincubated at 30° C. for 10 minutes. Next, 20 μl of a substrate solution warmed to 30° C. was mixed with the test sample-enzyme mixture and incubated at 30° c. After 10 minutes, 50 μl of 30% acetic acid was added to stop the enzymatic reaction. The amount of the AMC produced was quantified using a fluorescent photometer. At the same time, a blind test was carried out by adding, instead of the test sample solution, 5 μl of DMSO and performing the same reaction. […]

[2] = human, plasma, pH 7.2
Procedure: as §1, §2, §3

[3] = system: human chymase induced vascular permeability; test: Test of human chymase induced vascular permeability exacerbation reaction; type: in vivo, Wister male rats; conditions: 10 mg/kg orally, 30 minutes before intracutaneous human chymase (20 mU), rat back skin, Evans Blue
Procedure: Wister male rats (body weight 200 to 220 g, Charles River Japan) were used. In the backs of the rats from which the hair had been shaved off, 100 μl (20 mU: 1U being amount of enzyme for producing 1 nmol of AMC in 1 minute from Suc-Ala-Ala-Pro-Phe-MCA at pH7.5 and 30° C.) of a solution of the human chymase enzyme solution purified in evaluation Example 1 diluted 100-fold by PBS (phosphate buffered saline) was injected intracutaneously, then immediately thereafter a 0.5% (w/w) Evans Blue solution was administered from the tail artery. After 30 minutes, the rats were sacrificed by draining their blood under anesthesia with ether and the amount of dye leaking out to the back skin was measured. The region of the skin where the dye leaked out was cut off and 1.0 ml of 1N KOH solution was added and the resultant mixture was allowed to stand at 37° C. overnight. Next, 4 ml of an acetone-0.6N phosphoric acid (13:5) mixture was added to extract the dye. The absorbance at 650 nm of the supernatant was measured. […]
Next, 10 mg/kg of the compound of Example 18 was orally administered. 30 minutes later, 100 μl (20 mU) of human chymase the same as the non-drug administered group was injected intracutaneously and the amount of dye leaked out similarly measured. The rate of suppression of the amount of dye leakage due to the compound was calculated according to the following calculation formula. […]

SMILES | half-life at 10 µM [1] [h] | also measured
O=c1[nH]c2cc(Cl)ccc2c(=O)n1S(=O)(=O)c1cccc(O)c1 [Example 1, 7-chloro-3-(3-hydroxybenzenesulfonyl)-2,4(1H,3H)-quinazolinedione] | 1.3 | 
Nc1ccccc1S(=O)(=O)n1c(=O)[nH]c2cc(Cl)ccc2c1=O [Example 2] | 2.92 | 
Nc1cc(S(=O)(=O)n2c(=O)[nH]c3cc(Cl)ccc3c2=O)ccc1Cl [Example 8, 3-(3-amino-4-chlorobenzenesulfonyl)-7-chloro-2,4(1H,3H)-quinazolinedione] | 0.483 | 
Cc1ccc(S(=O)(=O)n2c(=O)[nH]c3cc(Cl)ccc3c2=O)cc1N [Example 10, 3-(3-amino-4-methylbenzenesulfonyl)-7-chloro-2,4(1H,3H)-quinazolinedione] | 2.78 | 
Nc1cccc(S(=O)(=O)n2c(=O)[nH]c3cc(Cl)ccc3c2=O)c1 [Example 12, 3-(3-aminobenzenesulfonyl)-7-chloro-2,4(1H,3H)-quinazolinedione] | 4.15 | 
CC(C(=O)O)C(=O)Nc1cccc(S(=O)(=O)n2c(=O)[nH]c3cc(Cl)ccc3c2=O)c1 (centres unmarked) [Example 13, 2-{3-[(7-chloro-2,4(1H,3H)-quinazolinedion-3-yl)sulfonyl]phenylaminocarbonyl}propionic acid] |  | IC50 (Human heart chymase): 0.3 µM; t1/2 [2]: 1.62 h
O=C([O-])c1ccc(S(=O)(=O)n2c(=O)[nH]c3cc(Cl)ccc3c2=O)cc1O.[Na+] [Example 16, 4-[(7-chloro-2,4(1H,3H)-quinazolinedion-3-yl)sulfonyl]salicylic acid monosodium salt] | > 4 | 
Nc1cc(S(=O)(=O)n2c(=O)[nH]c3cc(Cl)ccc3c2=O)ccc1C(=O)O [Example 17, 4-[(7-chloro-2,4(1H,3H)-quinazolinedion-3-yl)sulfonyl]anthranilic acid] | 4.33 | 
Nc1cc(S(=O)(=O)n2c(=O)[nH]c3cc(Cl)ccc3c2=O)ccc1C(=O)[O-].[Na+] [Example 18, 4-[(7-chloro-2,4(1H,3H)-quinazolinedion-3-yl)sulfonyl]anthranilic acid monosodium salt] | 1.72 | Rate of suppression of amount of leakage of dye [3]: 64%
COc1ccc(S(=O)(=O)n2c(=O)[nH]c3cc(Cl)ccc3c2=O)cc1NC(C)=O [Example 22, 3-(3-acetamide-4-methoxybenzenesulfonyl)-7-chloro-2,4(1H,3H)-quinazolinedione] | 1.73 | 

Now from value to molecule, other results behind:

half-life at 10 µM [1] [h] | SMILES | also measured
> 4 | O=C(O)C1Oc2ccc(S(=O)(=O)n3c(=O)[nH]c4cc(Cl)ccc4c3=O)cc2NC1=O (racemic) [Example 29, (±)-6-[(7-chloro-2,4(1H,3H)-quinazolinedion-3-yl)sulfonyl]-3-oxo-1,4-benzoxazine-2-carboxylic acid] | 
1.32 | COc1ccc(S(=O)(=O)n2c(=O)[nH]c3cc(Cl)ccc3c2=O)cc1NS(C)(=O)=O [Example 24, 7-chloro-3-(4-methoxy-3-methylsulfonylaminobenzenesulfonyl)-2,4(1H,3H)-quinazolinedione] | 
4.38 | COc1ccc2c(=O)n(S(=O)(=O)c3ccc(C(=O)O)c(N)c3)c(=O)[nH]c2c1 [Example 27, 4-[(7-methoxy-2,4(1H,3H)-quinazolinedion-3-yl)sulfonyl]anthranilic acid] | 
1.23 | Nc1cc(S(=O)(=O)n2c(=O)[nH]c3ccc(Cl)cc3c2=O)ccc1C(=O)O [Example 32, 4-[(6-chloro-2,4(1H,3H)-quinazolinedion-3-yl)sulfonyl]anthranilic acid] | 
11.8 | CS(=O)(=O)O.Nc1cccc(S(=O)(=O)n2c(=O)[nH]c3cc(Cl)ccc3c2=O)c1 [Example 34, 3-(3-aminobenzenesulfonyl)-7-chloro-2,4-(1H,3H)quinazolinedion methanesulfonic acid salt] | 
